Measurements taken from ChEMBL document CHEMBL1156588, “Structure-activity relationships of chiral selective norepinephrine reuptake inhibitors (sNRI) with increased oxidative stability” (Bioorg Med Chem Lett, 2008).

Assay: Terminal half life in human
Assay type: ADME, organism-based
Conditions: in vivo
Molecule `CNCC[C@@H](Oc1ccccc1C)c1ccccc1` [ATOMOXETINE] has a half-life of 180 min.

Assay: in vitro
Conditions: human, liver microsomes
In the case of `CNC[C@@H]1OCc2ccccc2[C@@H]1Oc1cccc(F)c1C`, the CLint scaled at 1 h, 1 µM is reported as 21 mL/min/kg. Work on `CNC[C@@H]1COc2ccccc2[C@@H]1Oc1ccccc1Cl` yielded a CLint scaled at 1 h, 1 µM of 9 mL/min/kg. With `CCc1ccccc1O[C@H]1c2ccccc2OC[C@H]1CNC` the CLint scaled at 1 h, 1 µM was at most 3 mL/min/kg. With `CNC[C@@H]1OCc2ccccc2[C@@H]1Oc1ccccc1C(F)(F)F` the CLint scaled at 1 h, 1 µM was 10 mL/min/kg. In the case of `CNC[C@@H]1OCc2ccccc2[C@@H]1Oc1ccc(O)cc1C`, the CLint scaled at 1 h, 1 µM is reported as 4 mL/min/kg. For `CNC[C@@H]1OCc2ccccc2[C@@H]1Oc1ccccc1Cl`, the CLint scaled at 1 h, 1 µM was 8 mL/min/kg. With `CNCC[C@@H](Oc1ccccc1C)c1ccccc1` [ATOMOXETINE] the CLint scaled at 1 h, 1 µM was 50 mL/min/kg. In the case of `CNC[C@@H]1OCc2ccccc2[C@@H]1Oc1c(C)cccc1F`, the CLint scaled at 1 h, 1 µM is reported as at most 3 mL/min/kg. For `CNC[C@@H]1OCc2ccccc2[C@@H]1Oc1c(F)cccc1C(F)(F)F`, the CLint scaled at 1 h, 1 µM was at most 3 mL/min/kg.
